Results published in patent EP4786487A1, “PEPTIDE” (Peptidream Inc, priority 2023, dated 2025).
Where two headings read alike, the source gives them in different places. Starred links: 1 amine or outer side, 2 acyl side, 3 side chain; linkers in the order of their positions; H or OH if unused. Positions of bridges follow the written chain, without caps; N, C: chain ends. Non-standard residues stand in square brackets, D forms with d. Residues, ends and D or L forms follow the SMILES beside them. *: point of attachment. Trp(6-OH,1-(4-HO2C-Ph)) = N[C@@H](Cc1cn(-c2ccc(C(=O)O)cc2)c2cc(O)ccc12)C(=O)O; Phe(3-OCH2COOH) = N[C@@H](Cc1cccc(OCC(=O)O)c1)C(=O)O; N(CH2CH2CO)Gly = O=C(CN(CCC(=O)[*:3])[*:1])[*:2]; Phe(4-COOH) = N[C@@H](Cc1ccc(C(=O)O)cc1)C(=O)O; Piperazinyl(4-CH2COOH) = O=C(O)CN1CCN(*)CC1; Gly(decyl) = CCCCCCCCCC[C@H](N)C(=O)O; Gly(N(CH2)3COOH) = O=C(O)CCCNCC(=O)O; X1 = CCCCCCC[C@H](N[*:1])C(=O)[*:2]; NMeF = CN[C@@H](Cc1ccccc1)C(=O)O; NMeE = CN[C@@H](CCC(=O)O)C(=O)O; Cha = N[C@@H](CC1CCCCC1)C(=O)O; NMeDap = CN[C@@H](CN)C(=O)O; NMeA = CN[C@@H](C)C(=O)O; Bn = c1ccc(C*)cc1; Sar = CNCC(=O)O

Assays:
[1] = Distribution of peptide in skeletal muscle (plasma and quadriceps concentrations); format: in vivo; settings: mouse, sc, 10 mg/kg subcutaneously, male CD1 mice; for level at 24 h: 24 hr after administration; for level at 48 h: 48 hr after administration; for level at 72 h: 72 hr after administration
Procedure: The peptide Myostatin_99_Variant_07 (SEQ ID NO: 3), synthesized according to Example 1, was administered subcutaneously at 10 mg/kg to male 6-8-week-old CD1 mice. Plasma and quadriceps concentrations were measured at 24, 48, and 72 hours after administration. […]
Note that plasma was separated from blood by centrifugation; 25% homogenate of tissue was prepared and deproteinized with 5% formic acid-containing acetonitrile; and the drug concentrations were determined using an LC/MS/MS system (LCMS-8060, Shimadzu Corporation).

Myostatin [2] = test: Reporter gene assay for myostatin signaling in HepG2 cell line, Evaluation Procedure (1), myostatin inhibition; format: cell-based; settings: GDF-11 IC50 versus Myostatin IC50
Outline: (§1)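 IC50 derived from One-Glo luciferase luminescence after 20–24 h at 37 °C. Peptides titrated 4-fold at 0.006–100 nmol/L against myostatin or 0.12–2000 nmol/L against GDF-11 in HepG2 cells carrying a transfected CAGA12-luciferase reporter, kept in 0.1% BSA EMEM.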

Myostatin [3] = biological target: T1, Myostatin (Homo sapiens, UniProt O14793); test: as above; format: cell-based
T1 construct: active myostatin (also called mature myostatin) is a homodimer consisting of two C-terminal growth factor domains; purchased R&D systems 788-G8/CF
T1 sequence (O14793 267-375): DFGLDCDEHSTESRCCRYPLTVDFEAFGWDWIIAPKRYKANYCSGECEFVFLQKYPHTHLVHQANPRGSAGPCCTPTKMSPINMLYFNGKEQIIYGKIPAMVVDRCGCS
Outline: as §1

[4] = Muscle strength, body weight and serum creatine kinase in B10 mdx mice; format: in vivo, C57BL/10-mdx/Jcl mice; settings: 10 mg/kg subcutaneous
Procedure: (§2) In this Example, the effect of the peptide Myostatin_99_Variant_07 (SEQ ID NO: 3), synthesized according to Example 1, on improvement of muscle strength in DMD model mice was evaluated using B10 mdx model mice (NPL 17).
(§3) To five-week-old male C57BL/10-mdx/Jcl (CLEA Japan, Inc.) mice, the peptide or solvent control (Vehicle) PBS was subcutaneously administered as shown in Table 11 three times a week or every day for 5 weeks.
(§4) Using a smart-type grip strength meter for rats and mice (MK-380V; Muromachi Kikai Co., Ltd.), forelimb and hindlimb grip strength measurements and body weight measurements were performed on the day of completion of the acclimation period (grouping day), and on Days 7, 14, 21, 27, and 33. The measurements were conducted with individual identification numbers blinded so that the examiner was unaware of the test conditions of the mice. The grip strength was measured seven times consecutively, and the average of five points, excluding the two points: the highest and lowest values, was used as individual data. The body weight was weighed using an electronic balance.
(§5) Serum creatine kinase (CK) concentrations (mean ± SEM) on Day 35, when the animals were euthanized, were also examined.

GDF-11 [5] = biological target: T2, GDF-11 (Homo sapiens, UniProt O95390); test: Reporter gene assay for myostatin signaling in HepG2 cell line, Evaluation Procedure (1), GDF-11 inhibition; format: cell-based
T2 construct: purchased R&D systems 1958-GD-G8/CF
T2 sequence (O95390 299-407): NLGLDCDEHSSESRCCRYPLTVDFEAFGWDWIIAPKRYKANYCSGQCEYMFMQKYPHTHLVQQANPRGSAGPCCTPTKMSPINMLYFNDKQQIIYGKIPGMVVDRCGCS
Outline: as §1

B10 mdx model mice = test: Improvement of muscle strength and inhibition of muscle necrosis in B10 mdx mice; format: in vivo, C57BL/10-mdx/Jcl mice; settings: 10 mg/kg subcutaneous
Procedure: as §2, §3, §4, §5

Myostatin [6] = biological target: T1, Myostatin; test: HepG2 reporter gene assay, Evaluation Procedure (2): 2-concentrations assay, myostatin inhibition; format: cell-based; settings: Myostatin 10 ng/mL, HepG2; for inhibition at 0.03 µM: peptide 30nM, read-out: Myostatin Inhibition 30nM; for inhibition at 0.1 µM: peptide 100nM, read-out: Myostatin Inhibition 100nM
Outline: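 Myostatin inhibition was measured in a luciferase reporter assay using HepG2 cells transfected with a pGL3 vector containing 12 CAGA repeats upstream of luciferase. After 20 to 24 hours with 10 ng/mL myostatin, cells received One-Glo:PBS (1:1) at 100 µL/well, were shaken for 5 min, and 20 µL/well was moved to 384-well plates and read on an Envision 2104.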

GDF-11 [7] = biological target: T2, GDF-11; test: HepG2 reporter gene assay, Evaluation Procedure (2): 2-concentrations assay, GDF-11 inhibition; format: cell-based; settings: GDF-11 10 ng/mL
Outline: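 HepG2 cells carrying the transfected pGL3(CAGA)12-luc reporter, a pGL3 vector with luciferase placed downstream of 12 CAGA repeats, were stimulated with GDF-11 at a final 10 ng/mL together with test peptide. Blank wells received no GDF-11 and no peptide. Plates were incubated 20 to 24 hours at 37°C with 5% CO2. Luminescence from One-Glo substrate was read to calculate percent inhibition.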

GDF-11 [8] = test: Reporter gene assay for myostatin signaling in HepG2 cell line, Evaluation Procedure (1), GDF-11 inhibition; format: cell-based; settings: GDF-11 IC50 relative to myostatin IC50, HepG2
Outline: as §1

[9] = plasma, read-out: Plasma concentration
[10] = quadriceps muscle, quadriceps, read-out: Intramuscular concentration
[11] = Method B: Myostatin 1 ng/mL, read-out: IC50 (Luciferase) Myostatin HepG2
[12] = Method B: GDF-11 1 ng/mL, read-out: IC50 (Luciferase) GDF-11 HepG2

CC[C@H](C)[C@@H]1NC(=O)[C@H](Cc2ccccc2)N(C)C(=O)[C@H](Cc2ccc(O)cc2)NC(=O)[C@H](Cc2c[nH]c3ccccc23)NC(=O)[C@H](C)NC(=O)CN(CCCC(=O)O)C(=O)CSC[C@H](C(=O)O)NC(=O)[C@H](Cc2ccccc2)N(C)C(=O)[C@H](C)N(C)C(=O)[C@H](CC(C)C)NC(=O)[C@H](Cc2ccccc2)N(C)C(=O)[C@H](CCCNC(=N)N)NC(=O)[C@H](Cc2ccc(C(=O)O)cc2)NC(=O)[C@H](Cc2ccc(O)cc2)NC(=O)CN(C)C1=O [Myostatin_99_Variant_07] ({CH2CO}-[Gly(N(CH2)3COOH)]AWY[NMeF]I[Sar]Y[Phe(4-COOH)]R[NMeF]L[NMeA][NMeF][dC]-OH; thioether N-15)
level at 24 h [1, 9]: 232 ng/mL
level at 48 h [1, 9]: 55 ng/mL
level at 72 h [1, 9]: 40 ng/mL
level at 24 h [1, 10]: 283 ng/mL
level at 48 h [1, 10]: 190 ng/mL
level at 72 h [1, 10]: 74 ng/mL
Selectivity (Myostatin [2]; Method A): 40
IC50 (Myostatin [3]; Method A: Myostatin 10 ng/mL, read-out: IC50 (Luciferase) Myostatin HepG2): 26.2 nM
time-course change in grip strength ([4]; vs. PBS (Fig. 3)): continuous increase in grip strength was observed
time-course change in body weight ([4]; vs. Vehicle (Fig. 4)): cause the body weight to continuously increase
IC50 (GDF-11 [5]; Method A: GDF-11 10 ng/mL, read-out: IC50 (Luciferase) GDF-11 HepG2): 1050 nM
time-course change in grip strength (B10 mdx model mice; 3 times a week, vs. PBS Vehicle group, Fig. 3): continuous increase in grip strength
time-course change in body weight (B10 mdx model mice; 3 times a week, vs. Vehicle group, Fig. 4): body weight to continuously increase
Serum creatine kinase (CK) concentrations (mean ± SEM) (B10 mdx model mice; Day 35, Vehicle group 3,836 ± 754 IU/L): 3,247 ± 558 IU/L

CCCCCCCCCC[C@@H]1NC(=O)[C@H](CC2CCCCC2)NC(=O)[C@H](CCCNC(=N)N)NC(=O)[C@H](Cc2ccc(C(=O)O)cc2)NC(=O)[C@H](Cc2cccc(OCC(=O)O)c2)NC(=O)CN(C)C(=O)[C@H]([C@@H](C)CC)NC(=O)[C@H](Cc2ccccc2)N(C)C(=O)[C@H](Cc2ccc(O)cc2)NC(=O)[C@H](Cc2c[nH]c3ccccc23)NC(=O)[C@H](C)NC(=O)[C@H](C)NC(=O)CSC[C@H](C(=O)N2CCN(CC(=O)O)CC2)NC(=O)[C@H](Cc2ccccc2)N(C)C(=O)[C@H](CCC(=O)O)N(C)C1=O [Myostatin_99_v261] ({CH2CO}-AAWY[NMeF]I[Sar][Phe(3-OCH2COOH)][Phe(4-COOH)]R[Cha][Gly(decyl)][NMeE][NMeF][dC]-{Piperazinyl(4-CH2COOH)}; thioether N-15)
inhibition at 0.03 µM (Myostatin [6]): 26%
inhibition at 0.1 µM (Myostatin [6]): 72%
Selectivity (Myostatin [2]; Method B): 181
IC50 (Myostatin [3]; [11]): 0.16 nM
IC50 (GDF-11 [5]; [12]): 29 nM

CCCCCCCCCC[C@@H]1NC(=O)[C@H](Cc2ccccc2)N(C)C(=O)[C@H](CCCNC(=N)N)NC(=O)[C@H](Cc2ccc(C(=O)O)cc2)NC(=O)[C@H](Cc2cccc(OCC(=O)O)c2)NC(=O)CN(C)C(=O)[C@H]([C@@H](C)CC)NC(=O)[C@H](Cc2ccccc2)N(C)C(=O)[C@H](Cc2ccc(O)cc2)NC(=O)[C@H](Cc2c[nH]c3ccccc23)NC(=O)[C@H](C)NC(=O)[C@H](C)NC(=O)CSC[C@H](C(=O)N2CCN(CC(=O)O)CC2)NC(=O)[C@H](Cc2ccccc2)N(C)C(=O)[C@H](CCC(=O)O)N(C)C1=O [Myostatin_99_v265] ({CH2CO}-AAWY[NMeF]I[Sar][Phe(3-OCH2COOH)][Phe(4-COOH)]R[NMeF][Gly(decyl)][NMeE][NMeF][dC]-{Piperazinyl(4-CH2COOH)}; thioether N-15)
inhibition at 0.03 µM (Myostatin [6]): 91%
inhibition at 0.1 µM (Myostatin [6]): 98%
Selectivity (Myostatin [2]; Method B): 55
IC50 (Myostatin [3]; [11]): 0.1 nM
IC50 (GDF-11 [5]; [12]): 5.3 nM

CCCCCCC[C@@H]1NC(=O)[C@H](Cc2ccccc2)N(C)C(=O)[C@H](CCCNC(=N)N)NC(=O)[C@H](Cc2ccc(C(=O)O)cc2)NC(=O)[C@H](Cc2cccc(OCC(=O)O)c2)NC(=O)CN(C)C(=O)[C@H]([C@@H](C)CC)NC(=O)[C@H](Cc2ccccc2)N(C)C(=O)[C@H](Cc2ccc(OCc3ccccc3)cc2)NC(=O)[C@H](Cc2c[nH]c3ccccc23)NC(=O)[C@H](C)NC(=O)[C@H](C)NC(=O)CSC[C@H](C(=O)N2CCN(CC(=O)O)CC2)NC(=O)[C@H](Cc2ccccc2)N(C)C(=O)[C@H](C)N(C)C1=O [Myostatin_99_v298] ({CH2CO}-AAWY(Bn)[NMeF]I[Sar][Phe(3-OCH2COOH)][Phe(4-COOH)]R[NMeF][X1][NMeA][NMeF][dC]-{Piperazinyl(4-CH2COOH)}; thioether N-15)
inhibition at 0.03 µM (Myostatin [6]): 100%
inhibition at 0.1 µM (Myostatin [6]): 100%
Selectivity (Myostatin [2]; Method B): 62
IC50 (Myostatin [3]; [11]): 0.11 nM
IC50 (GDF-11 [5]; [12]): 6.8 nM
inhibition at 0.03 µM (GDF-11 [7]; HepG2, peptide 30nM, read-out: GDF11 Inhibition 30nM): 12%
inhibition at 0.1 µM (GDF-11 [7]; HepG2, peptide 100nM, read-out: GDF11 Inhibition 100nM): 55%

CCCCCCC[C@@H]1NC(=O)[C@H](Cc2ccccc2)N(C)C(=O)[C@H](CCCNC(=N)N)NC(=O)[C@H](Cc2ccc(C(=O)O)cc2)NC(=O)[C@H](Cc2cccc(OCC(=O)O)c2)NC(=O)[C@H]2CCCN2C(=O)[C@H]([C@@H](C)CC)NC(=O)[C@H](Cc2ccccc2)N(C)C(=O)[C@H](Cc2ccc(O)cc2)NC(=O)[C@H](Cc2cn(-c3ccc(C(=O)O)cc3)c3cc(O)ccc23)NC(=O)[C@H](C)NC(=O)CN2CCC(=O)NC[C@@H](C(=O)N(C)[C@@H](Cc3ccccc3)C(=O)N[C@H](C)C(=O)N(C)[C@@H](C)C2=O)N(C)C1=O [Myostatin_99_v489] (cyclo(A[Trp(6-OH,1-(4-HO2C-Ph))]Y[NMeF]I[dP][Phe(3-OCH2COOH)][Phe(4-COOH)]R[NMeF][X1][NMeDap][NMeF][dA][NMeA][N(CH2CH2CO)Gly]); lactam 12-16)
IC50 (Myostatin [3]; HepG2, luciferase reporter, Evaluation Procedure (1), Method D): 0.12 nM
Selectivity (GDF-11 [8]): 365.6
IC50 (GDF-11 [5]; HepG2, luciferase reporter, Evaluation Procedure (1), Method D, read-out: IC50 (Luciferase) GDP-11 HepG2): 45.4 nM
